# Where two headings read alike, the source gives them in different places.
# Legend:
# M1 muscarinic receptor = biological target: T1, M1 muscarinic receptor (Homo sapiens, UniProt P11229); assay: Functional mobilization of intracellular calcium (FLIPR, Fluo-3), M1-CHO cells; format: cell-based; settings: for Emax: read-out: M1 Efficacy
# T1 construct: expressed in transfected cells; host or cells: CHO cells (M1-CHO, under zeocin and G418 selection)
# T1 sequence (P11229 1-460): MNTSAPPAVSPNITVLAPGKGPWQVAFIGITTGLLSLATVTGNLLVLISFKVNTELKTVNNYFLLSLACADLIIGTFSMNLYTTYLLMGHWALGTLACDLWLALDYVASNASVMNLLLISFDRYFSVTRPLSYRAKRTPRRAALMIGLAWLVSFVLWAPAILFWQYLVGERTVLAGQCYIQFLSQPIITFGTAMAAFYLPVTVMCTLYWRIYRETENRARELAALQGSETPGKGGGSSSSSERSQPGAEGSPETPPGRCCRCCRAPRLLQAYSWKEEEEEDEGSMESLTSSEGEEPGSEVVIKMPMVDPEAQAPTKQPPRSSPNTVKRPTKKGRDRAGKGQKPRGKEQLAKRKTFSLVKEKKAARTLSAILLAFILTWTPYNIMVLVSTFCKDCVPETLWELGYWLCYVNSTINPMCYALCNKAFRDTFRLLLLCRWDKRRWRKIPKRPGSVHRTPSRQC
# Outline: (§1)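 Fluo-3 read-out, ex 488/em 540 nm, 60 sec on FLIPR 3. For agonist mode, compound added directly; for inhibition, 15 min compound pre-incubation before carbachol at EC80 (added as a 3× solution), or co-application. Buffer pH 7.4 with 1 mM probenecid; DMSO 0.5%.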
# M4 muscarinic receptor = biological target: T2, M4 muscarinic receptor (Homo sapiens, UniProt P08173); assay: Functional mobilization of intracellular calcium (FLIPR, Fluo-3), M4-CHO cells; format: cell-based; settings: for Emax: read-out: M4 Efficacy
# T2 construct: expressed in transfected cells; host or cells: CHO cells (M4-CHO, under puromycin, zeocin and blasticidin selection)
# T2 sequence (P08173 1-479): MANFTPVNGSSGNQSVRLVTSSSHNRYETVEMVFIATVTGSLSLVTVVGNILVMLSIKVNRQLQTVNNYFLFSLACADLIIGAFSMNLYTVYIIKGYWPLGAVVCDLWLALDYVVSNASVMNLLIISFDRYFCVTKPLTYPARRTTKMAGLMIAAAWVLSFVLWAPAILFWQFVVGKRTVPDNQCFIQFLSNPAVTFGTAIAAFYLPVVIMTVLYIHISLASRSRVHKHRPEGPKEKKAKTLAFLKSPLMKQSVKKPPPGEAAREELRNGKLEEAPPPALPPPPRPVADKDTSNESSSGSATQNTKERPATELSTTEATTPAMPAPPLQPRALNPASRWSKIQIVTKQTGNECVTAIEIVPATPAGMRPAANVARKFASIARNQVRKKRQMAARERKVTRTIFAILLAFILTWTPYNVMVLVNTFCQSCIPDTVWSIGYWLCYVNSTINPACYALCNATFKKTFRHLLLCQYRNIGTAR
# Outline: as §1
# [1] = compound nos. 1-454, 100% efficacy is the maximum response obtained with the Carbachol control
# [2] = compound nos. 1-454, M1-CHO cells, calcium mobilization
# [3] = compound nos. 1-454, M4-CHO cells, calcium mobilization
# [4] = compound nos. 455-509, 100% efficacy is the maximum response obtained with the Carbachol control
SMILES,Emax (M1 muscarinic receptor; [1]),M1 Activity (M1 muscarinic receptor; [2]),Emax (M4 muscarinic receptor; [1]),M4 Activity (M4 muscarinic receptor; [3]),also measured
CC(=O)N1CC2(CCN(C3CCC(C(C)C)CC3)CC2)c2cc(F)ccc21 (stereo not drawn) [compound 226],< 65%,+ (activity was measured to be greater than or equal to 3.0 μM),< 55%,+ (activity was measured to be greater than or equal to 4.0 μM),
CC(=O)N1CC2(CCN(CC3CC4CCC3C4)CC2)c2cc(C)ccc21 (stereo not drawn) [compound 118],65 to 85%,+++ (activity was measured to be less than or equal to 0.7 μM),< 55%,+ (activity was measured to be greater than or equal to 4.0 μM),
CCOC(=O)N1CCC(N2CCC3(CC2)CN(CCOC)c2ccc(F)cc23)CC1 [compound 391],< 65%,,< 55%,,M1 Activity (M1 muscarinic receptor; compound nos. 1-454): ++ (activity was measured to be between 0.7 μM and 3.0 μM); M4 Activity (M4 muscarinic receptor; compound nos. 1-454): + (activity was measured to be greater than or equal to 4.0 μM)
CCCS(=O)(=O)N1CC2(CCN(C3CC4CCC(C3)N4C(=O)OCC)CC2)c2cc(F)ccc21 (stereo not drawn) [compound 349],> 85%,++ (activity was measured to be between 0.7 μM and 3.0 μM),> 70%,++ (activity was measured to be between 0.1 μM and 4.0 μM),
Clc1ccc2c(c1)C1(CCN(C3CCOCC3)CC1)CN2 [compound 37],65 to 85%,+++ (activity was measured to be less than or equal to 0.7 μM),> 70%,++ (activity was measured to be between 0.1 μM and 4.0 μM),
CCCOC(=O)N1C2CCC1CC(N1CCC3(CC1)CN(C(=O)N(C)C)c1ccc(F)cc13)C2 (stereo not drawn) [compound 360],65 to 85%,++ (activity was measured to be between 0.7 μM and 3.0 μM),< 55%,+ (activity was measured to be greater than or equal to 4.0 μM),
CCOC(=O)N1CCC(N2CCC3(CC2)CN(C(=O)OCC(C)C)c2ccc(F)cc23)CC1 [compound 30],> 85%,+++ (activity was measured to be less than or equal to 0.7 μM),> 70%,+++ (activity was measured to be less than or equal to 0.1 μM),
CCOC(=O)N1CCC(N2CCC3(CC2)CN(C(=O)C2CCCCC2)c2ccc(F)cc23)CC1 [compound 281],< 65%,++ (activity was measured to be between 0.7 μM and 3.0 μM),55 to 70%,++ (activity was measured to be between 0.1 μM and 4.0 μM),
CC(=O)N1CC2(CCN(C3CCN(c4nccs4)CC3)CC2)c2ccccc21 [compound 491],,,,,Emax (M1 muscarinic receptor; [4]): < 25%; M1 Activity (M1 muscarinic receptor; compounds 455-509): + (activity was measured to be greater than or equal to 5.0 μM); Emax (M4 muscarinic receptor; [4]): < 25%; M4 Activity (M4 muscarinic receptor; compounds 455-509): ++ (activity was measured to be between 2.0 μM and 5.0 μM)
CS(=O)(=O)N[C@H]1CC2(CCN(C[C@H]3C[C@H]4C=C[C@H]3C4)CC2)c2ccccc21 [compound 70],65 to 85%,++ (activity was measured to be between 0.7 μM and 3.0 μM),55 to 70%,+ (activity was measured to be greater than or equal to 4.0 μM),
CCOC(=O)N1C2CCC1CC(N1CCC3(CC1)CN(C(=O)C1CCC1)c1ccc(F)cc13)C2 (stereo not drawn) [compound 179],> 85%,++ (activity was measured to be between 0.7 μM and 3.0 μM),55 to 70%,+ (activity was measured to be greater than or equal to 4.0 μM),
CCOC(=O)N1C2CCC1CC(N1CCC3(CC1)CN(C(=O)C1CC1)c1ccc(F)cc13)C2 (stereo not drawn) [compound 214],< 65%,+ (activity was measured to be greater than or equal to 3.0 μM),< 55%,+ (activity was measured to be greater than or equal to 4.0 μM),
CCCOC(=O)N1C2CCC1CC(N1CCC3(CC1)CN(C(=O)C1CC1)c1ccc(F)cc13)C2 (stereo not drawn) [compound 389],65 to 85%,,< 55%,,M1 Activity (M1 muscarinic receptor; compound nos. 1-454): ++ (activity was measured to be between 0.7 μM and 3.0 μM); M4 Activity (M4 muscarinic receptor; compound nos. 1-454): + (activity was measured to be greater than or equal to 4.0 μM)
O=C(OC1CCC1)N1C2CCC1CC(N1CCC3(CC1)C(=O)Nc1ccccc13)C2 (stereo not drawn) [compound 217],< 65%,++ (activity was measured to be between 0.7 μM and 3.0 μM),< 55%,+ (activity was measured to be greater than or equal to 4.0 μM),
CN(C)C(=O)N1CC2(CCN(CC3CCN(c4cnccn4)C3)CC2)c2cc(F)ccc21 (stereo not drawn) [compound 449],,,,,M1 Activity (M1 muscarinic receptor; compound nos. 1-454): +++ (activity was measured to be less than or equal to 0.7 μM); M1 Efficacy (M1 muscarinic receptor; [1]): ++ (efficacy was calculated to be between 85% and 65%); M4 Activity (M4 muscarinic receptor; compound nos. 1-454): +++ (activity was measured to be less than or equal to 0.1 μM); M4 Efficacy (M4 muscarinic receptor; [1]): ++ (efficacy was calculated to be between 70% and 55%)
CN(C)C(=O)N1CC2(CCN(C3CCN(C(=O)OCCF)CC3)CC2)c2cc(F)ccc21 [compound 48],> 85%,+++ (activity was measured to be less than or equal to 0.7 μM),55 to 70%,++ (activity was measured to be between 0.1 μM and 4.0 μM),
CCOC(=O)N1C2CCC1CC(N1CCC3(CC1)CN(C(C)=O)c1c(F)cccc13)C2 (stereo not drawn) [compound 322],< 65%,++ (activity was measured to be between 0.7 μM and 3.0 μM),> 70%,+++ (activity was measured to be less than or equal to 0.1 μM),
O=C1CC2(CCN(C[C@H]3C[C@H]4C=C[C@H]3C4)CC2)c2ccccc21 [compound 104],65 to 85%,+++ (activity was measured to be less than or equal to 0.7 μM),< 55%,+ (activity was measured to be greater than or equal to 4.0 μM),
CCOC(=O)N1CCC(N2CCC3(CC2)C(=O)Nc2ccccc23)CC1 [compound 191],65 to 85%,+++ (activity was measured to be less than or equal to 0.7 μM),55 to 70%,+ (activity was measured to be greater than or equal to 4.0 μM),
"Clc1ccc2c(c1)C1(CCO2)CCN(CC2CC3C=C[C@H]2C3)CC1 (stereo in doubt) [compound 64, 1′-((1R,2R,4R)-bicyclo[2.2.1]hept-5-en-2-ylmethyl)-6-chlorospiro[chroman-4,4′-piperidine]]",< 65%,+++ (activity was measured to be less than or equal to 0.7 μM),< 55%,++ (activity was measured to be between 0.1 μM and 4.0 μM),
CCNC(=O)N1CC2(CCN(C3CC4CCC(C3)N4C(=O)OCC)CC2)c2cc(F)ccc21 (stereo not drawn) [compound 255],< 65%,+ (activity was measured to be greater than or equal to 3.0 μM),< 55%,+ (activity was measured to be greater than or equal to 4.0 μM),

# Source: patent US7858635B2 (priority 2005, dated 2010)
